{"source": "patent US20260250257A1", "about": "“ANTIBACTERIAL AND SYNERGISTIC ACTIVE COMPOUND AND USE THEREOF” (EAST CHINA UNIVERSITY OF SCIENCE AND TECHNOLOGY, priority 2023, published 2026)", "assay_type_in_all_cases": "cell-based", "key": {"[1]": {"system": "ATCC19606 strain (Acinetobacter baumannii)", "test": "Broth microdilution, antibacterial activity of the compound used alone", "source_text": "(§1) The broth microdilution method was used to test the antibacterial effects of the compounds of the present invention against various Gram-negative bacterial strains when used alone."}, "[2]": {"system": "ATCC9027 strain (Pseudomonas aeruginosa)", "test": "Broth microdilution, antibacterial activity of the compound used alone", "source_text": "as §1"}, "[3]": {"system": "ATCC13883 strain (Klebsiella pneumoniae)", "test": "Broth microdilution, antibacterial activity of the compound used alone", "source_text": "as §1"}, "[4]": {"system": "ATCC25922 strain (Escherichia coli)", "test": "Broth microdilution, antibacterial activity of the compound used alone", "source_text": "as §1"}, "[5]": {"system": "ATCC19606 strain (Acinetobacter baumannii)", "test": "Checkerboard antibacterial synergistic activity test with polymyxin E (FIC)", "parameters": "key: FIC≤0.5 synergy; 0.5–1 additive; 1–2 indifferent; ≥2 antagonism", "conditions": "combined with polymyxin E", "method_in_brief": "(§2)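 Interaction is reported as the fractional inhibitory concentration, read after 16 h of growth at 37° C. in Mueller-Hinton broth. Each well paired one level of polymyxin E (prepared at 16 to 0.015 μg/ml) with one of the test agent (prepared at 256 to 4 μg/ml) before bacteria were added.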"}, "[6]": {"system": "ATCC9027 strain (Pseudomonas aeruginosa)", "test": "Checkerboard antibacterial synergistic activity test with polymyxin E (FIC)", "parameters": "key: FIC≤0.5 synergy; 0.5–1 additive; 1–2 indifferent; ≥2 antagonism", "conditions": "combined with polymyxin E", "method_in_brief": "as §2"}, "[7]": {"system": "ATCC13883 strain (Klebsiella pneumoniae)", "test": "Checkerboard antibacterial synergistic activity test with polymyxin E (FIC)", "parameters": "key: FIC≤0.5 synergy; 0.5–1 additive; 1–2 indifferent; ≥2 antagonism", "conditions": "combined with polymyxin E", "method_in_brief": "as §2"}, "[8]": {"system": "ATCC25922 strain (Escherichia coli)", "test": "Checkerboard antibacterial synergistic activity test with polymyxin E (FIC)", "parameters": "key: FIC≤0.5 synergy; 0.5–1 additive; 1–2 indifferent; ≥2 antagonism", "conditions": "combined with polymyxin E", "method_in_brief": "as §2"}}, "data": [{"compound": "Oc1c(Cl)cc(-c2csc(N=C3NCCCN3)n2)cc1Cl", "note": "[Compound I-188]", "values": [{"measurement": "Antibacterial activity of the compound of Formula I, ATCC19606", "setting": "[1]", "result": 256, "unit": "µg/mL"}, {"measurement": "Antibacterial activity of the compound of Formula I, ATCC9027", "setting": "[2]", "result": 256, "unit": "µg/mL"}, {"measurement": "Antibacterial activity of the compound of Formula I, ATCC13883", "setting": "[3]", "result": 256, "unit": "µg/mL"}, {"measurement": "Antibacterial activity of the compound of Formula I, ATCC25922", "setting": "[4]", "result": 256, "unit": "µg/mL"}, {"measurement": "Synergistic activity (FIC value) ATCC19606", "setting": "[5]", "result": 0.25}, {"measurement": "Synergistic activity (FIC value) ATCC9027", "setting": "[6]", "result": 0.52}, {"measurement": "Synergistic activity (FIC value) ATCC13883", "setting": "[7]", "result": 1.25}, {"measurement": "Synergistic activity (FIC value) ATCC25922", "setting": "[8]", "result": 1.25}]}, {"compound": "Cc1ccc(Sc2ccccc2-c2coc(N=C(N)N)n2)c(C)c1", "note": "[Compound I-108]", "values": [{"measurement": "Antibacterial activity of the compound of Formula I, ATCC19606", "setting": "[1]", "result": 256, "unit": "µg/mL"}, {"measurement": "Antibacterial activity of the compound of Formula I, ATCC9027", "setting": "[2]", "result": 256, "unit": "µg/mL"}, {"measurement": "Antibacterial activity of the compound of Formula I, ATCC13883", "setting": "[3]", "result": 256, "unit": "µg/mL"}, {"measurement": "Antibacterial activity of the compound of Formula I, ATCC25922", "setting": "[4]", "result": 256, "unit": "µg/mL"}, {"measurement": "Synergistic activity (FIC value) ATCC19606", "setting": "[5]", "result": 0.03}, {"measurement": "Synergistic activity (FIC value) ATCC9027", "setting": "[6]", "result": 0.28}, {"measurement": "Synergistic activity (FIC value) ATCC13883", "setting": "[7]", "result": 0.16}, {"measurement": "Synergistic activity (FIC value) ATCC25922", "setting": "[8]", "result": 0.18}]}, {"compound": "Oc1cc(Oc2ccc(Cl)cc2Cl)cc(-c2csc(N=C3NCCCN3)n2)c1", "note": "[Compound I-156]", "values": [{"measurement": "Antibacterial activity of the compound of Formula I, ATCC19606", "setting": "[1]", "result": 256, "unit": "µg/mL"}, {"measurement": "Antibacterial activity of the compound of Formula I, ATCC9027", "setting": "[2]", "result": 256, "unit": "µg/mL"}, {"measurement": "Antibacterial activity of the compound of Formula I, ATCC13883", "setting": "[3]", "result": 256, "unit": "µg/mL"}, {"measurement": "Antibacterial activity of the compound of Formula I, ATCC25922", "setting": "[4]", "result": 256, "unit": "µg/mL"}, {"measurement": "Synergistic activity (FIC value) ATCC19606", "setting": "[5]", "result": 0.04}, {"measurement": "Synergistic activity (FIC value) ATCC9027", "setting": "[6]", "result": 0.28}, {"measurement": "Synergistic activity (FIC value) ATCC13883", "setting": "[7]", "result": 0.13}, {"measurement": "Synergistic activity (FIC value) ATCC25922", "setting": "[8]", "result": 0.2}]}, {"compound": "NC(N)=Nc1nc(-c2cccc(OCc3ccccc3)c2)cs1", "note": "[Compound I-8]", "values": [{"measurement": "MIC", "setting": "[1]; read-out: Antibacterial activity of the compound of Formula I, ATCC19606", "result": 256, "unit": "µg/mL"}, {"measurement": "MIC", "setting": "[2]; read-out: Antibacterial activity of the compound of Formula I, ATCC9027", "result": 128, "unit": "µg/mL"}, {"measurement": "MIC", "setting": "[3]; read-out: Antibacterial activity of the compound of Formula I, ATCC13883", "result": 256, "unit": "µg/mL"}, {"measurement": "MIC", "setting": "[4]; read-out: Antibacterial activity of the compound of Formula I, ATCC25922", "result": 256, "unit": "µg/mL"}, {"measurement": "Synergistic activity (FIC value) ATCC19606", "setting": "[5]", "result": 0.25}, {"measurement": "Synergistic activity (FIC value) ATCC9027", "setting": "[6]", "result": 0.53}, {"measurement": "Synergistic activity (FIC value) ATCC13883", "setting": "[7]", "result": 0.53}, {"measurement": "Synergistic activity (FIC value) ATCC25922", "setting": "[8]", "result": 1.25}]}, {"compound": "NC(N)=Nc1nc(-c2ccc(Cl)cc2)cs1", "note": "[Compound I-38]", "values": [{"measurement": "Antibacterial activity of the compound of Formula I, ATCC19606", "setting": "[1]", "result": 256, "unit": "µg/mL"}, {"measurement": "Antibacterial activity of the compound of Formula I, ATCC9027", "setting": "[2]", "result": 256, "unit": "µg/mL"}, {"measurement": "Antibacterial activity of the compound of Formula I, ATCC13883", "setting": "[3]", "result": 256, "unit": "µg/mL"}, {"measurement": "Antibacterial activity of the compound of Formula I, ATCC25922", "setting": "[4]", "result": 256, "unit": "µg/mL"}, {"measurement": "Synergistic activity (FIC value) ATCC19606", "setting": "[5]", "result": 0.28}, {"measurement": "Synergistic activity (FIC value) ATCC9027", "setting": "[6]", "result": 0.63}, {"measurement": "Synergistic activity (FIC value) ATCC13883", "setting": "[7]", "result": 0.25}, {"measurement": "Synergistic activity (FIC value) ATCC25922", "setting": "[8]", "result": 0.5}]}, {"compound": "CSc1cc2cc(C)ccn2c1-c1csc(N=C(N)N)n1", "note": "[Compound I-125]", "values": [{"measurement": "Antibacterial activity of the compound of Formula I, ATCC19606", "setting": "[1]", "result": 256, "unit": "µg/mL"}, {"measurement": "Antibacterial activity of the compound of Formula I, ATCC9027", "setting": "[2]", "result": 256, "unit": "µg/mL"}, {"measurement": "Antibacterial activity of the compound of Formula I, ATCC13883", "setting": "[3]", "result": 256, "unit": "µg/mL"}, {"measurement": "Antibacterial activity of the compound of Formula I, ATCC25922", "setting": "[4]", "result": 256, "unit": "µg/mL"}, {"measurement": "Synergistic activity (FIC value) ATCC19606", "setting": "[5]", "result": 0.03}, {"measurement": "Synergistic activity (FIC value) ATCC9027", "setting": "[6]", "result": 0.28}, {"measurement": "Synergistic activity (FIC value) ATCC13883", "setting": "[7]", "result": 0.16}, {"measurement": "Synergistic activity (FIC value) ATCC25922", "setting": "[8]", "result": 0.18}]}, {"compound": "CC(=O)Nc1cc(-c2csc(N=C(N)N)n2)ccc1-c1ccccc1", "note": "[Compound I-75]", "values": [{"measurement": "Antibacterial activity of the compound of Formula I, ATCC19606", "setting": "[1]", "result": 256, "unit": "µg/mL"}, {"measurement": "Antibacterial activity of the compound of Formula I, ATCC9027", "setting": "[2]", "result": 256, "unit": "µg/mL"}, {"measurement": "Antibacterial activity of the compound of Formula I, ATCC13883", "setting": "[3]", "result": 256, "unit": "µg/mL"}, {"measurement": "Antibacterial activity of the compound of Formula I, ATCC25922", "setting": "[4]", "result": 256, "unit": "µg/mL"}, {"measurement": "Synergistic activity (FIC value) ATCC19606", "setting": "[5]", "result": 0.12}, {"measurement": "Synergistic activity (FIC value) ATCC9027", "setting": "[6]", "result": 0.31}, {"measurement": "Synergistic activity (FIC value) ATCC13883", "setting": "[7]", "result": 0.31}, {"measurement": "Synergistic activity (FIC value) ATCC25922", "setting": "[8]", "result": 0.38}]}, {"compound": "COc1ccc(Oc2ccccc2-c2csc(N=C(N)N)n2)c(C)c1", "note": "[Compound I-83]", "values": [{"measurement": "Antibacterial activity of the compound of Formula I, ATCC19606", "setting": "[1]", "result": 256, "unit": "µg/mL"}, {"measurement": "Antibacterial activity of the compound of Formula I, ATCC9027", "setting": "[2]", "result": 256, "unit": "µg/mL"}, {"measurement": "Antibacterial activity of the compound of Formula I, ATCC13883", "setting": "[3]", "result": 256, "unit": "µg/mL"}, {"measurement": "Antibacterial activity of the compound of Formula I, ATCC25922", "setting": "[4]", "result": 256, "unit": "µg/mL"}, {"measurement": "Synergistic activity (FIC value) ATCC19606", "setting": "[5]", "result": 0.63}, {"measurement": "Synergistic activity (FIC value) ATCC9027", "setting": "[6]", "result": 0.04}, {"measurement": "Synergistic activity (FIC value) ATCC13883", "setting": "[7]", "result": 0.09}, {"measurement": "Synergistic activity (FIC value) ATCC25922", "setting": "[8]", "result": 0.27}]}]}
